This note sets out measurements from ChEMBL document CHEMBL1201862, “PubChem BioAssay data set” (2004).

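All cell lines were grown in 96-well plates and treated with compound for 48 hours. The concentration for 50% growth inhibition is given as GI50.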 The source made the active and inactive calls. Cut-off read from the data, not from the text of the source: active = GI50 up to about 1.1 µM and inactive = higher. A value given as a limit tells only on which side of the number the result lay.

Some test systems named below: A498; A549; CCRF-CEM; DU-145; HCC 2998; HCT-15; K562; LOX IMVI; M14; MDA-N; NCI-H23; NCI-H460; NCI-H522; OVCAR-3; SF-268; SK-MEL-2; SNB-19; SNB-75; SR; TK-10.
Assay in all cases: inhibition of tumour cell growth, NCI panel, 48 h

For `CCOC(=O)/C=C(\C(=O)OCC)n1ccc(=O)n(Cc2cn(CCCCOC(C)=O)nn2)c1=O`, the GI50 with A498 is 17.6 µM (inactive); in the assay with A549, 21.9 µM (inactive); with CCRF-CEM, 1.28 µM (inactive); with DU-145, 20.5 µM (inactive); in the assay on HCC 2998, 21.6 µM (inactive); in the assay on HCT-15, 7.01 µM. Besides, the GI50 in the assay on K562 was 4.59 µM (inactive); in the assay with LOX IMVI it was 14.9 µM (inactive); in the assay on M14, 23.9 µM (inactive); in the assay on MDA-N, 19.5 µM (inactive); in the assay with NCI-H23, 16.6 µM (inactive); with NCI-H460, 13.6 µM (inactive). Moreover, the GI50 in the assay with NCI-H522 is 1.72 µM (inactive); with OVCAR-3, 12.7 µM (inactive); in the assay with SF-268 it was 17.7 µM (inactive); in the assay on SK-MEL-2 it was 18.8 µM (inactive); in the assay with SNB-19 it was > 39.7 µM (inactive); in the assay with SNB-75, 19.5 µM (inactive). Besides, the GI50 in the assay on SR is 10.1 µM (inactive); in the assay on TK-10, 6.4 µM (inactive).
For `CC(C)(C)NC(=O)[C@H]1CC[C@H]2[C@@H]3CC=C4NC(=O)CC[C@]4(C)[C@H]3CC[C@]12C`, the GI50 in the assay with A498 is > 100 µM (inactive); with A549 it was > 100 µM (inactive); in the assay on CCRF-CEM, > 100 µM (inactive); with DU-145, > 100 µM (inactive); with HCC 2998, > 100 µM (inactive); with HCT-15, greater than 100 µM. Besides, the GI50 is > 100 µM (inactive) in the assay on K562; > 100 µM (inactive) in the assay on LOX IMVI; > 100 µM (inactive) with M14; > 100 µM (inactive) with MDA-N; 52 µM (inactive) in the assay on NCI-H23; > 100 µM (inactive) in the assay on NCI-H460. Further, the GI50 is 36.4 µM (inactive) in the assay with NCI-H522; > 100 µM (inactive) in the assay with OVCAR-3; 54.6 µM (inactive) in the assay with SF-268; > 100 µM (inactive) in the assay on SK-MEL-2; > 100 µM (inactive) in the assay with SNB-19; 22.6 µM (inactive) in the assay on SNB-75. Further, the GI50 is > 100 µM (inactive) with SR and 46.8 µM (inactive) in the assay with TK-10.
On to `O=C(O)CCc1nc2cc3ccccc3cc2[nH]c1=O`, for which the GI50 is > 100 µM (inactive) in the assay on A498; > 100 µM (inactive) in the assay on A549; > 100 µM (inactive) in the assay on CCRF-CEM; > 100 µM (inactive) in the assay on DU-145; > 100 µM (inactive) with HCC 2998; greater than 100 µM with HCT-15. Besides, the GI50 in the assay with K562, in the assay on LOX IMVI, in the assay on M14, with MDA-N, in the assay with NCI-H23 and with NCI-H460 was > 100 µM (inactive) throughout. For the same compound, the GI50 in the assay with NCI-H522, with OVCAR-3, in the assay on SF-268, with SK-MEL-2, in the assay with SNB-19 and in the assay on SNB-75 was > 100 µM (inactive) throughout. For the same compound, the GI50 with SR and with TK-10 was > 100 µM (inactive) in each case.
As to `COC(=O)c1csc([C@@H](OC(=O)[C@H](C)[C@H](CCCC(C)(Cl)Cl)OC(=O)c2csc([C@H](O)CO)n2)C(C)C)n1`, the GI50 in the assay with A498 is 18.3 µM (inactive); with A549, 17.9 µM (inactive); in the assay on CCRF-CEM, 17.2 µM (inactive); in the assay with DU-145 it was 12.3 µM (inactive); with HCC 2998, 10.2 µM (inactive); in the assay on HCT-15 it was 16.4 µM. Also, the GI50 with K562 was 16.4 µM (inactive); with LOX IMVI it was 10.5 µM (inactive); in the assay with M14, 17.8 µM (inactive); in the assay on MDA-N, 7.94 µM (inactive); in the assay with NCI-H23 it was 16.4 µM (inactive); with NCI-H460, 9.89 µM (inactive). The GI50 with NCI-H522 was 16.8 µM (inactive); in the assay with OVCAR-3, 15 µM (inactive); in the assay on SF-268 it was 17.7 µM (inactive); with SK-MEL-2 it was 15.3 µM (inactive); in the assay on SNB-19, 13.6 µM (inactive); with SNB-75 it was 1.39 µM (inactive). Besides, the GI50 with SR is 13.7 µM (inactive); in the assay on TK-10, 12.4 µM (inactive).
With `COc1ccc(OC)c2sc(N3C(=O)/C(=C/c4ccc(Cl)cc4)N=C3c3ccccc3)nc12`, the GI50 in the assay on A498 was > 100 µM (inactive); in the assay with A549, > 100 µM (inactive); with CCRF-CEM, 37 µM (inactive); in the assay on DU-145, > 100 µM (inactive); in the assay on HCC 2998, 80.2 µM (inactive); in the assay on HCT-15 it was 98.4 µM. Moreover, the GI50 in the assay with K562 was 26.2 µM (inactive); in the assay with LOX IMVI, 34.2 µM (inactive); with M14, > 100 µM (inactive); in the assay with MDA-N it was 34.2 µM (inactive); with NCI-H23, > 100 µM (inactive); in the assay on NCI-H460, 80.5 µM (inactive). The GI50 is 48.9 µM (inactive) in the assay with NCI-H522; 46.3 µM (inactive) in the assay on OVCAR-3; 98.9 µM (inactive) in the assay with SF-268; > 100 µM (inactive) with SK-MEL-2; > 100 µM (inactive) in the assay on SNB-19; 89.3 µM (inactive) in the assay with SNB-75. Further, the GI50 in the assay with SR is 43.4 µM (inactive); in the assay with TK-10 it was 72.6 µM (inactive).
Regarding `COc1cc(C2c3cc4c(cc3[C@@H](Nc3ccc(C#N)cc3)C3COC(=O)[C@H]23)OCO4)cc(OC)c1O` (stereo not given in full), the GI50 in the assay with A498 is 2.01 µM (inactive); in the assay on A549 it was 0.166 µM (active); in the assay on CCRF-CEM, 0.524 µM (active); in the assay with DU-145, 0.273 µM (active); in the assay on HCC 2998, 0.0693 µM (active); with HCT-15, 2.31 µM. For the same compound, the GI50 in the assay with K562 was 0.462 µM (active); in the assay on LOX IMVI it was 1.08 µM (active); in the assay on M14, 1.35 µM (inactive); in the assay with MDA-N, 6.21 µM (inactive); with NCI-H23, 0.622 µM (active); in the assay on NCI-H460, 0.038 µM (active). Also, the GI50 in the assay on NCI-H522 is 1.88 µM (inactive); in the assay with OVCAR-3, 14.4 µM (inactive); in the assay on SF-268, 2.43 µM (inactive); in the assay on SK-MEL-2 it was 14.6 µM (inactive); with SNB-19, 1.39 µM (inactive); in the assay on SNB-75, 2.6 µM (inactive). The GI50 with SR was 0.261 µM (active); in the assay with TK-10, 7.82 µM (inactive).
For `Nc1c2c(nc3ccccc13)-c1ccccc1NCCC2`, the GI50 was 16.6 µM (inactive) in the assay with A498; 47.4 µM (inactive) in the assay with A549; 26.4 µM (inactive) in the assay on CCRF-CEM; 59.7 µM (inactive) with DU-145; 13.9 µM (inactive) with HCC 2998; 35.6 µM in the assay on HCT-15. The GI50 was 23.4 µM (inactive) in the assay with K562; 16.8 µM (inactive) in the assay on LOX IMVI; 17.4 µM (inactive) in the assay on M14; 17.5 µM (inactive) in the assay on MDA-N; 47.3 µM (inactive) in the assay on NCI-H23; 15.3 µM (inactive) in the assay with NCI-H460. The GI50 is 26.9 µM (inactive) in the assay on NCI-H522; 78.2 µM (inactive) with OVCAR-3; 45.1 µM (inactive) in the assay on SF-268; 18 µM (inactive) in the assay with SK-MEL-2; 53 µM (inactive) in the assay on SNB-19; 43.4 µM (inactive) with SNB-75. For the same compound, the GI50 in the assay with SR is 17.9 µM (inactive); in the assay with TK-10, 19 µM (inactive).
